As usually defined, the IC50 is the concentration that inhibits the measured activity by half. A low value points to greater potency.

In the assay the target is T1, L-type amino acid transporter 1 (LAT-1/SLC7A5) (Homo sapiens, UniProt Q01650).
T1 construct: with CD98 (4F2hc; SLC3A2, also printed as SLC2A3)
The assay can be described thus: inhibition of [[…]6, […]]-L-leucine uptake in hCMEC/D3 cells, UPLC-MS/MS. It is filed as cell-based.

T1 sequence (Q01650 whole entry): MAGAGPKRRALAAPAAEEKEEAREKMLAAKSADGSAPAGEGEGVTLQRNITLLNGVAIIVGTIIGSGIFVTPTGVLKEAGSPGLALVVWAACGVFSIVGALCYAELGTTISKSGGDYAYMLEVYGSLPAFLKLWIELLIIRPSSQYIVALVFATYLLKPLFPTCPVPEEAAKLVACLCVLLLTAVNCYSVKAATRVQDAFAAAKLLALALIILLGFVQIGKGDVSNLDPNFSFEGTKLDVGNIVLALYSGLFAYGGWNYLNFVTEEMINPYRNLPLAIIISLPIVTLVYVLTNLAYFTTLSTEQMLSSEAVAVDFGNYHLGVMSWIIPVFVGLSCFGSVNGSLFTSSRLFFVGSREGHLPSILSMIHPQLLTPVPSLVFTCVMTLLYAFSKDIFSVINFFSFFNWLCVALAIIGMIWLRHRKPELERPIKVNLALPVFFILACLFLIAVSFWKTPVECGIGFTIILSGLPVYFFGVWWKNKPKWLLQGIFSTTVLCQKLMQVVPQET
T1 sequence (P08195 103-630 partner): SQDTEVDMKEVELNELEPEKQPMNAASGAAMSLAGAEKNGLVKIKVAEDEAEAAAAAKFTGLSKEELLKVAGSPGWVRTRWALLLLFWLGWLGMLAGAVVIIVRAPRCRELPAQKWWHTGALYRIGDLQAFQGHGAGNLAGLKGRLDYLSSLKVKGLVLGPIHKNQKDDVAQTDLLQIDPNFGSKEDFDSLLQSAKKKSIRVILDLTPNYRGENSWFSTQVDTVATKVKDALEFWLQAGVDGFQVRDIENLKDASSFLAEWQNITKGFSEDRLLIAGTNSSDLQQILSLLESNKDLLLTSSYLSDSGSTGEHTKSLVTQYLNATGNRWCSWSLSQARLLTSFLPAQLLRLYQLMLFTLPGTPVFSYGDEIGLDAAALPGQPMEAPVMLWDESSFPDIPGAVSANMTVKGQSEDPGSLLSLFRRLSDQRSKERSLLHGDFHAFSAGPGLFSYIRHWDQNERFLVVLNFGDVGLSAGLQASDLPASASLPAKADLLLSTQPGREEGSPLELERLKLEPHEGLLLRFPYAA

The compound `NC1(C(=O)O)CC2CCC1C2` (centres unmarked) [BCH, 2-aminobicyclo-(2,2,1)-heptane-2-carboxylic acid] showed an IC50 of 91 ± 39 µM. As for `Nc1cc(COc2c(Cl)cc(C[C@H](N)C(=O)O)cc2Cl)c2oc(-c3ccccc3)nc2c1` [JPH203], the midpoint of inhibition, the IC50, lay at 0.103 ± 0.015 µM.

For the origin of these results see PMC8998838, “Functional Characterization of the Solute Carrier LAT-1 (SLC7A5/SLC2A3) in Human Brain Capillary Endothelial Cells with Rapid UPLC-MS/MS Quantification of Intracellular Isotopically Labelled L-Leucine” (International Journal of Molecular Sciences, 2022).
